Results as given in paper PMC7051184, “C9orf72 arginine-rich dipeptide repeat proteins disrupt karyopherin-mediated nuclear import” (eLife, 2020).
Where a SMILES comes first, the peptide text is derived from it.

What was measured:
importin β (KPNB1) = target: T1, importin β (KPNB1) (Homo sapiens, UniProt Q14974); assay: Rango FRET detection of importin β-Rango dissociation; type: binding; conditions: DPR 10-mers added to importin β-bound Rango
T1 construct: pET30a 6His-S-Importin β(1-876); 6His (N); S-tag (N); made in house; host or cells: E. coli BL21(DE3)
T1 sequence (Q14974 whole entry): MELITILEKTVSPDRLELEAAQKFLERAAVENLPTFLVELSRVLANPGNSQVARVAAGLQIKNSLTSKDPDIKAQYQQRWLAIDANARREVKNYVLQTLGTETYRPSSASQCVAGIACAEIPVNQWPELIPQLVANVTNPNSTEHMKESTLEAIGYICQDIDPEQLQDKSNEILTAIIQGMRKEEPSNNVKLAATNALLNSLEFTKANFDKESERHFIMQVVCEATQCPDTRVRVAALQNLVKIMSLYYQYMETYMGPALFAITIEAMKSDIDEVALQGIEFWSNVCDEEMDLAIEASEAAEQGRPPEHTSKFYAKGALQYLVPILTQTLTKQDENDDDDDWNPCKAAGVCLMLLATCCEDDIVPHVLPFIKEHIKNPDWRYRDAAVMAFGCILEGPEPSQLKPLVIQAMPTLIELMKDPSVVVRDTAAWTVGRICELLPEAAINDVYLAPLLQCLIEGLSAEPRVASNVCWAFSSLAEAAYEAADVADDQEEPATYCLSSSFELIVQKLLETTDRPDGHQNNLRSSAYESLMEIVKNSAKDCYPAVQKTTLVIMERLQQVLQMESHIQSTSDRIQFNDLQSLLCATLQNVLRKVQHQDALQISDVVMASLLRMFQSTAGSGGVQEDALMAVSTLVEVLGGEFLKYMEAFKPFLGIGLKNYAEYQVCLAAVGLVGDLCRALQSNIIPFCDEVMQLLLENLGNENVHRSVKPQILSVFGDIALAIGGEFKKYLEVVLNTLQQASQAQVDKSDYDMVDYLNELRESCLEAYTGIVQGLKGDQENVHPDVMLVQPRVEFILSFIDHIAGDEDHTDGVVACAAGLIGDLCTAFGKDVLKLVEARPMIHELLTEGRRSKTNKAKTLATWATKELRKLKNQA
Protocol: Full-length human importin β was expressed from pET30a-WT importin β (pKW485; [Chi et al., 1997]) at the Protein Expression Laboratory (PEL, National Cancer Institute, Frederick, MD). The transformed BL21DE3 cells were grown at 37°C in an 80L Bioflow 500 bioreactor (New Brunswick Scientific, Edison, NJ) until OD600nm = 0.6, cooled to 22°C and the expression was induced with 0.3 mM IPTG. After 12 hr induction, cells were harvested with the CARR continuous flow centrifuge and lysed in PBS with 10 mM imidazole and 5 mM TCEP with a 110EH Microfluidizer (Microfluidics, Westwood, MA) using 2 passes at 10,000 PSI under chilled conditions. The lysates were flash-frozen in liquid nitrogen and stored at −80°C. After thawing, the lysates were clarified and incubated with HIS-Select HF Nickel Affinity beads. The beads were washed with 10 mM imidazole/PBS and the protein eluted with 200 mM imidazole/PBS before dialysis in XB. The purified importin β was combined with a freshly thawed aliquot of Rango2-α1 (pK188) at 2.5:1 molar ratio ratio (12.5 µM importin β, 5 µM Rango) and supplemented with 3% glycerol. Measurement of Rango fluorescence emission in a spectrometer (see below) was used to verify the FRET-off state of the Rango/importin β mixture before freezing.
The expression of zz-RCC1 was induced at OD600nm = 0.4, followed by incubation at 22°C for 4 hr. The cells were washed with PBS, 10 mM Imidazole, 1 mM MgCl2, 5 mM TCEP, 0.2 mM AEBSF, pH 8.0, and lysed by ice-cold microfluidizer. The clarified lysates were used to isolate the zz-RCC1 proteins on HIS-Select HF Nickel Affinity beads, as described above. Proteins eluted with 0.2M imidazole/PBS were dialyzed in PBS before storage. The zz-RanQ69L (pKW1234; pK1097) was expressed from BL21DE3 cells at PEL in an 80L bioreactor, using conditions described for importin β above, except that expression was induced with 0.3 mM IPTG at 37°C for 3 hr, and lysis was performed in PBS with 10 mM Imidazole, 5 mM TCEP, 2 mM MgCl2, and 1 mM GTP. The lysates were clarified and bound to HIS-Select HF Nickel Affinity beads (Millipore Sigma). […]
FRET assays for DPR-induced dissociation of the importin β-Rango complex were performed using a mix of 5 µM Rango-2/α1 (pK188) and 12.5 µM importin β (pKW485) prepared as described above. […] Peak emissions were recorded at 480 nm (donor) and 535 nm (acceptor) in all samples, and background emission subtracted at the same wavelengths in the blank. The FRET signal was calculated as the ratio of background-subtracted acceptor/donor emissions. The signal detected in the untreated sample (20 nM Rango and 50 nM importin β-only, the lowest FRET), was then subtracted from the resulting values. […]

importin α = assay: DPR aggregation assay and western blot, ImpA; type: biochemical, human; conditions: for ImpA band density, Pellet / ImpA band density, Supernatant: 100 µM 10mer in 2.5 mg/ml HEK lysate, normalized to untreated HEK; for ImpA band density, % untr control: Fig 5-suppl 3C, normalized to untreated HEK on same membrane;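 for ImpA band density, % untr control: RNA rows contain added 20 µg total HEK RNA while no-RNA rows lack it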
Protocol: (§1) Supernatant and pellet fractions (for all 5 DPRs, and control/buffer only) were prepared as in the nuclear transport assays, by adding 100 µM 10mers to 2.5 mg/ml HEK lysate in 100 µL TRB. Supernatants were boiled in Laemmli (BioRad) for 5 min. Pellets were boiled for 15 min followed by sonication in order to fully disperse aggregates for SDS-PAGE. Equal volumes of supernatant and pellet fractions were run on 4–12% Bolt Bis-Tris Plus gels (ThermoFisher), transferred to nitrocellulose membrane using an iBlot2 dry blotting system (ThermoFisher). Protein loading was analyzed by BLOT-Faststain (G-biosciences, St. Louis, MO), according to the manufacterers’ instructions. For immunodetection, membranes were blocked with 5% non-fat milk in TBST and probed by sequential incubation with the primary antibodies as detailed in the table below. Detection was by HRP-conjugated secondary antibodies/chemiluminescence using an ImageQuant LAS 4000 system (GE, Chicago, IL). To permit sequential probing of membranes without stripping, signals were quenched by incubation with prewarmed 30% H20_2 for 20 min ([Sennepin et al., 2009]). Band intensities were measured by ImageQuant software. For pellet vs. supernatant fractions, all were expressed as percent untreated control. For blots in Figure 1E, samples were run on 4–20% SDS PAGE minigels (ThermoFisher) and blotted to PVDF membranes (Immun-Blot PVDF, Bio-Rad) using the Bio-Rad TransBlot Turbo apparatus, and probed as above. The chemiluminescence signal was captured with a Bio-Rad ChemiDoc XRS+ digital imaging system.

[1] = DPR aggregate formation in HEK lysate (pellet vs. supernatant, total protein); type: biochemical, human
Protocol: as §1, with “For blots in Figure 1E, samples were run on 4–20% SDS PAGE minigels (ThermoFisher) and blotted to PVDF membranes (Immun-Blot PVDF, Bio-Rad) using the Bio-Rad TransBlot Turbo apparatus, and probed as above. The chemiluminescence signal was captured with a Bio-Rad ChemiDoc XRS+ digital imaging system.” left out

[2] = target: passive nuclear influx of 40 kD dextran; assay: Passive import assay, 40 kD dextran, permeabilized HeLa; type: cell-based, human; conditions: preincubation 30–60 min, with energy and lysate; imaged 5 min
[3] = Pellet, no RNA (Untreated), blot 1
[4] = Pellet, no RNA (Untreated), blot 2
[5] = Supernatant, no RNA (Untreated), blot 1
[6] = Supernatant, no RNA (Untreated), blot 2

Molecule	Effect on Rango FRET (importin β (KPNB1))	ImpA band density, Pellet (importin α; Blot 1)	ImpA band density, Supernatant (importin α; Blot 1)	ImpA band density, Pellet (importin α; Blot 2)	ImpA band density, Supernatant (importin α; Blot 2)	ImpA band density, % untr control (importin α; Pellet, RNA, blot 1)	ImpA band density, % untr control (importin α; Pellet, RNA, blot 2)	ImpA band density, % untr control (importin α; [3])	ImpA band density, % untr control (importin α; [4])	ImpA band density, % untr control (importin α; Supernatant, RNA, blot 1)	ImpA band density, % untr control (importin α; Supernatant, RNA, blot 2)	ImpA band density, % untr control (importin α; [5])	ImpA band density, % untr control (importin α; [6])	Depletion of NCT proteins from the supernatant ([1]; 100 µM)	Effect on passive nuclear influx of 40-kD dextran [2]	Aggregate formation in cell lysate ([1]; transport assay lysate)
N=C(N)NCCC[C@H](NC(=O)[C@@H]1CCCN1C(=O)[C@H](CCCNC(=N)N)NC(=O)[C@@H]1CCCN1C(=O)[C@H](CCCNC(=N)N)NC(=O)[C@@H]1CCCN1C(=O)[C@H](CCCNC(=N)N)NC(=O)[C@@H]1CCCN1C(=O)[C@H](CCCNC(=N)N)NC(=O)[C@@H]1CCCN1C(=O)[C@H](CCCNC(=N)N)NC(=O)[C@@H]1CCCN1C(=O)[C@H](CCCNC(=N)N)NC(=O)[C@@H]1CCCN1C(=O)[C@H](CCCNC(=N)N)NC(=O)[C@@H]1CCCN1C(=O)[C@H](CCCNC(=N)N)NC(=O)[C@@H]1CCCN1C(=O)[C@H](CCCNC(=N)N)NC(=O)[C@@H]1CCCN1)C(=O)O [PR10] (H-PRPRPRPRPRPRPRPRPRPR-OH; N-terminus and C-terminus assumed)	dose-dependent increase in FRET	170.0 % control	78.1 % control	198.7 % control	90.0 % control	171.92%	154.07%	177.99%	181.79%	85.78%	111.13%	79.74%	105.29%	not substantially depleted from the supernatant	–	–
PA10: Synthetic 10-mer PA dipeptide repeat with C-terminal lysine and cysteine (PAPAPAPAPAPAPAPAPAPAKC)	did not affect Rango FRET	–	–	–	–	–	–	–	–	–	–	–	–	–	not observed	–
GPGPGPGPGPGPGPGPGPGPKC [GP10, Synthetic 10-mer GP dipeptide repeat with C-terminal lysine and cysteine]	did not affect Rango FRET	–	–	–	–	–	–	–	–	–	–	–	–	–	not observed	–
GA10: Synthetic 10-mer GA dipeptide repeat with C-terminal lysine and cysteine (GAGAGAGAGAGAGAGAGAGAKC)	did not affect Rango FRET	–	–	–	–	93.99%	102.25%	106.73%	98.70%	83.82%	115.58%	82.83%	108.20%	–	not observed	did not observe GA-induced aggregate formation
